# Measurements reported in patent publication US5856535A, “Aminosterol ester compounds” (priority 1996, dated 1999).
# Where two headings read alike, the source gives them in different places.
# How the values were obtained:
# [1] = system: melanoma cells; test: MTT assay for cell number; format: cell-based; details: for IC50: read-out: MTT assay IC50; for minimal effective concentration: 48 h, Table II, read-out: Minimum Effective Concentration, MTT assay
# Experimental: In Table V, several aminosterol esters show efficacy in killing melanoma cells in the MTT assay.
# The MTT assay for cell number is performed as follows. Cells are counted on a hemocytometer and diluted to a concentration of approx. 10,000 cells/well (55,000 cells/ml×0.18 ml). Cells are then plated in a 96 well microtiter plate and allowed to attach overnight. The next day, compounds are serially diluted from 1000 to 15.6 μg/ml and run in duplicate. 20 μl of each dilution are transferred to the pre-seeded microtiter plates. The final concentrations are 100 to 1.56 μg/ml. The plates are then incubated for 48 hours at 37° C. in 5% CO2. After 48 hours, MTT solution is added. The plate is re-incubated for 4 hours. Readings are done by removing all but 30 μl of media and MTT solution and dissolving the formazan crystals with DMSO. The formazan is dissolved by mixing on a rotating plate at low speed for about 30 minutes. Absorbance of converted dye is measured at a wavelength of 560 nm with background subtraction at 630 nm. The percent survival is determined by a comparison between the mean absorbance of the duplicate test lanes and the growth control.
# [2] = system: splenocytes; test: mitogen proliferation assay (splenocytes of treated mice, Con A); format: in vivo; details: for Rel. potency to MSI-1436, Mitogen Proliferation Assay: 10 mg/kg iv
# Experimental: For the attached Tables, the mitogen proliferation assay was performed by treating mice (male or female) with various amounts of the aminosterol test compounds. Some time later (typically between 2 hours and 14 days), the mice are sacrificed and their spleens removed. Splenocytes are harvested and cultured in the presence of between 1-10 μg/ml of Con A (Sigma) for 48 hours. See James Morgan, "Monoclonal Antibody Production," Modern Methods in Pharmacology, pp. 29-67, eds., Spector and Back, 1988. This excerpt is entirely incorporated herein by reference. Cell proliferation is monitored either by direct cell counting or by measurement of the incorporation of radioactive thymidine.
# [3] = inhibition of MSI-1436 binding; details: 3H-MSI-1436 at 20 μg/mL
# [4] = system: chick embryo vitelline capillaries; test: chick embryo vitelline capillary regression assay; format: in vivo; design: key to Chick embryo vitelline capillary regression: +: Vascular reactivity; 0: No vascular reactivity; +/-: Equivocal reactivity; details: for Chick embryo vitelline capillary regression: 60 minutes; for effect on vitelline capillaries (in words): 3- to 5-day chick embryo
# Experimental: Using the chick embryo vitelline capillaries assay, various aminosterol compounds were tested for their ability to induce capillary regression. Each compound was applied in 0.1 ml of 15% Ficol 400 and PBS onto the embryo, and vascular regression was assessed after 60 minutes. These tests were conducted by the chorioallantoic membrane anti-angiogenesis assay by applying the material to be assayed to 3 day old fertilized chick embryos in the manner described by Wilks et al., "Inhibition of Angiogenesis With Combination Angiostatic Steroids and Suramin," Radiation Biology, Vol. 60, Nos. 1/2, 1991, pp. 73-77, which article is entirely incorporated herein by reference.
# The 3-day chick embryo consists of an embryonic disc from which numerous vessels emerge and return, forming a "figure 8"-shaped structure--the embryo in the center with vascular loops extending outward over both poles. […] Following a lag period of around 15 minutes, the constriction of continuity between capillary and secondary vessels, generally on the "venous" side, was observed. Continued pulsatile blood flow progressed, resulting in a "swelling" of the blind tube, followed by a pinching off of the remaining connection and formation of an enclosed vascular sac resembling a "blood island." This process progressed until only the largest vessels remained intact.
# [5] = system: Xenopus laevis Stages 59-60 tadpoles; test: tadpole assay; format: in vivo; details: 10 μg/ml where stated
# [6] = system: S. aureus; test: antibiotic activity, S. aureus; format: cell-based; details: Staphylococcus aureus
compound,measurement,setting,value
COC(=O)CC[C@@H](C)[C@H]1CC[C@H]2[C@@H]3C[C@@H](O)[C@H]4C[C@@H](NCCCN5CCN(CCCN)CC5)CC[C@]4(C)[C@H]3CC[C@]12C [Compound 469],IC50,[1],2 µg/mL
same,"Rel. potency to MSI-1436, Mitogen Proliferation Assay",[2],1.6
same,potency in the mitogen proliferation assay (in words),"[2]; mouse, in vivo",higher potency in the mitogen proliferation assay than compound 1436
same,% Inhib. of MSI-1436 Binding @ 100 μg/mL,[3],110%
CC(CCC(=O)O)[C@H]1CCC2C3CC[C@H]4C[C@@H](NCCCNCCCCN)CC[C@]4(C)C3CC[C@@]21C (some centres unmarked),minimal effective concentration,[1],13.8 µg/mL
COC(=O)CCC(C)[C@H]1CCC2C3C(CC[C@@]21C)[C@@]1(C)CC[C@@H](NCCCNCCCCN)C[C@H]1C[C@H]3O (some centres unmarked) [drawing 116],IC50,[1]; Tables III-V,12 µg/mL
same,% Inhib. of MSI-1436 Binding @ 100 μg/mL,[3],18%
C[C@H](CCC(=O)O)[C@H]1CC[C@H]2[C@@H]3CC[C@H]4C[C@@H](NCCCNCCCCN)CC[C@]4(C)[C@H]3CC[C@]12C [Compound 319],Chick embryo vitelline capillary regression,[4]; 0.001 μg applied,+/-
same,Chick embryo vitelline capillary regression,[4]; 0.01 μg applied,+
same,Chick embryo vitelline capillary regression,[4]; 0.1 μg applied,+
same,Chick embryo vitelline capillary regression,[4]; 1 μg applied,+
same,Chick embryo vitelline capillary regression,[4]; 10 μg applied,+
same,effect on vitelline capillaries (in words),[4],especially active
same,vascular effect in tadpole (in words),[5]; about 60 minutes,common vascular occlusive effect
COC(=O)CCC(C)[C@H]1CCC2C3CC[C@H]4C[C@H](NCCCNCCCCNCCCN)CC[C@]4(C)C3CC[C@@]21C (some centres unmarked) [drawing 55],MIC,[6],4 µg/mL
CC(CCC(=O)O)[C@H]1CCC2C3C[C@@H](O)[C@H]4C[C@@H](NCCCNCCCCNCCCN)CC[C@]4(C)C3CC[C@@]21C (some centres unmarked),"Rel. potency to MSI-1436, Mitogen Proliferation Assay",[2],0.22
same,% Inhib. of MSI-1436 Binding @ 100 μg/mL,[3],-69%
COC(=O)CCC(C)[C@H]1CCC2C3C(CC[C@@]21C)[C@@]1(C)CC[C@H](NCCCNCCCCNCCCN)C[C@@H]1C[C@H]3O (some centres unmarked) [drawing 35],MIC,[6],2 to 4 µg/mL
COC(=O)CCC(C)[C@H]1CCC2C3CC[C@@H]4C[C@H](NCCN)CC[C@]4(C)C3C[C@H](O)[C@@]21C (some centres unmarked) [drawing 109],IC50,[1]; Tables III-V,2.4 µg/mL
COC(=O)CCC(C)[C@H]1CCC2C3C(CC[C@@]21C)[C@@]1(C)CC[C@H](NCCCNCCCCNCCCN)C[C@H]1C[C@H]3O (some centres unmarked),IC50,[1]; Tables III-V,7.9 µg/mL
same,% Inhib. of MSI-1436 Binding @ 100 μg/mL,[3],19%
COC(=O)CCC(C)[C@H]1CCC2C3CC[C@H]4C[C@@H](NCCCNCCCCNCCCN)CC[C@]4(C)C3CC[C@@]21C (some centres unmarked) [drawing 103],MTT assay IC50,[1]; Tables III-V,4 µg/mL
same,IC50,[1]; Tables III-V,5 µg/mL
same,"Rel. potency to MSI-1436, Mitogen Proliferation Assay",[2],0.73
same,% Inhib. of MSI-1436 Binding @ 100 μg/mL,[3],-24%
COC(=O)CCC(C)[C@H]1CCC2C3C(CC[C@@]21C)[C@@]1(C)CC[C@@H](NCCCNCCCCNCCCN)C[C@@H]1C[C@H]3O (some centres unmarked),IC50,[1]; Tables III-V,7.8 µg/mL
same,% Inhib. of MSI-1436 Binding @ 100 μg/mL,[3],15%
COC(=O)CC[C@@H](C)[C@H]1CC[C@H]2[C@@H]3CC[C@@H]4C[C@H](NCCN)CC[C@]4(C)[C@H]3C[C@H](O)[C@]12C [Compound 416],effect on embryonic epithelium / epithelial shedding (in words),[5],functionally similar to compound 1437
C[C@H](CCC(=O)O)[C@H]1CC[C@H]2[C@@H]3CC[C@H]4C[C@H](NCCCNCCCCN)CC[C@]4(C)[C@H]3CC[C@]12C [Compound 318],Chick embryo vitelline capillary regression,[4]; 1 μg applied,0
COC(=O)CCC(C)[C@H]1CCC2C3C(CC[C@@]21C)[C@@]1(C)CC[C@H](NCCN)C[C@H]1C[C@H]3O (some centres unmarked),IC50,[1]; Tables III-V,5.3 µg/mL
COC(=O)CCC(C)[C@H]1CCC2C3C(CC[C@@]21C)[C@@]1(C)CC[C@@H](NCCN)C[C@H]1C[C@H]3O (some centres unmarked) [drawing 70],minimal effective concentration,[1],2.6 µg/mL
CC(C)CCC[C@@H](C)[C@H]1CC[C@H]2[C@@H]3CC[C@H]4C[C@@H](NCCCNCCCCN)CC[C@]4(C)[C@H]3CC[C@]12C [Compound 303],Chick embryo vitelline capillary regression,[4]; 1 μg applied,0
CC(CCC(=O)O)[C@H]1CCC2C3C(CC[C@@]21C)[C@@]1(C)CC[C@H](NCCCNCCCCNCCCN)C[C@H]1C[C@H]3O (some centres unmarked) [drawing 86],minimal effective concentration,[1],18.1 µg/mL
COC(=O)CCC(C)[C@H]1CCC2C3CC[C@H]4C[C@H](NCCCNCCCCNCCCN)CC[C@]4(C)C3CC[C@@]21C (some centres unmarked) [drawing 84],minimal effective concentration,[1],6.8 µg/mL
COC(=O)CCC(C)[C@H]1CCC2C3C(CC[C@@]21C)[C@@]1(C)CC[C@H](NCCCNCCCCNCCCN)C[C@@H]1C[C@H]3O (some centres unmarked) [drawing 115],IC50,[1]; Tables III-V,8.1 µg/mL
same,% Inhib. of MSI-1436 Binding @ 100 μg/mL,[3],32%
COC(=O)CCC(C)[C@H]1CCC2C3CC[C@H]4C[C@H](NCCCNCCCCNCCCN)CC[C@]4(C)C3CC[C@@]21C (some centres unmarked) [drawing 118],IC50,[1]; Tables III-V,13 µg/mL
same,% Inhib. of MSI-1436 Binding @ 100 μg/mL,[3],49%
COC(=O)CCC(C)[C@H]1CCC2C3C[C@@H](O)[C@H]4C[C@@H](NCCCNCCCCN)CC[C@]4(C)C3CC[C@@]21C (some centres unmarked),IC50,[1]; Tables III-V,12 µg/mL
same,% Inhib. of MSI-1436 Binding @ 100 μg/mL,[3],57%
C[C@H](CCC(=O)O)[C@H]1CC[C@H]2[C@@H]3[C@H](O)C[C@@H]4C[C@@H](NCCN)CC[C@]4(C)[C@H]3CC[C@]12C [Compound 415],effect on vitelline capillaries (in words),[4],especially active
COC(=O)CC[C@@H](C)[C@H]1CC[C@H]2[C@@H]3C[C@@H](O)[C@H]4C[C@@H](NCCN)CC[C@]4(C)[C@H]3CC[C@]12C [Compound 432],effect on embryonic epithelium / epithelial shedding (in words),[5],functionally similar to compound 1437
COC(=O)CCC(C)[C@H]1CCC2C3C[C@@H](O)[C@H]4C[C@H](NCCN)CC[C@]4(C)C3CC[C@@]21C (some centres unmarked),IC50,[1]; Tables III-V,2.9 µg/mL
COC(=O)CC[C@@H](C)[C@H]1CC[C@H]2[C@@H]3[C@H](O)C[C@H]4C[C@@H](NCCCNCCCCNCCCN)CC[C@]4(C)[C@H]3CC[C@]12C [Compound 396],Chick embryo vitelline capillary regression,[4]; 0.001 μg applied,0
same,Chick embryo vitelline capillary regression,[4]; 0.01 μg applied,0
same,Chick embryo vitelline capillary regression,[4]; 0.1 μg applied,0
COC(=O)CC[C@@H](C)[C@H]1CC[C@H]2[C@@H]3[C@H](O)C[C@@H]4C[C@@H](NCCN)CC[C@]4(C)[C@H]3CC[C@]12C [Compound 409],effect on embryonic epithelium / epithelial shedding (in words),[5],functionally similar to compound 1437
COC(=O)CCC(C)[C@H]1CCC2C3CC[C@@H]4C[C@H](NCCN)CC[C@]4(C)C3C[C@H](O)[C@@]21C (some centres unmarked) [drawing 90],minimal effective concentration,[1],2.4 µg/mL
COC(=O)CC[C@@H](C)[C@H]1CC[C@H]2[C@@H]3C[C@@H](O)[C@H]4C[C@H](NCCN)CC[C@]4(C)[C@H]3CC[C@]12C [Compound 431],effect on embryonic epithelium / epithelial shedding (in words),[5],functionally similar to compound 1437
CC(CCC(=O)O)[C@H]1CCC2C3C(CC[C@@]21C)[C@@]1(C)CC[C@@H](NCCCNCCCCN)C[C@@H]1C[C@H]3O (some centres unmarked),minimal effective concentration,[1],58.6 µg/mL
COC(=O)CCC(C)[C@H]1CCC2C3CC[C@H]4C[C@@H](NCCCNCCCCNCCCN)CC[C@]4(C)C3CC[C@@]21C (some centres unmarked) [drawing 75],minimal effective concentration,[1],5 µg/mL
COC(=O)CCC(C)[C@H]1CCC2C3C[C@@H](O)[C@H]4C[C@@H](NCCN)CC[C@]4(C)C3CC[C@@]21C (some centres unmarked),IC50,[1]; Tables III-V,0.8 µg/mL
COC(=O)CCC(C)[C@H]1CCC2C3C[C@@H](O)[C@H]4C[C@@H](NCCCNCCCCNCCCN)CC[C@]4(C)C3CC[C@@]21C (some centres unmarked),MTT assay IC50,[1]; Tables III-V,14 µg/mL
same,IC50,[1]; Tables III-V,10 µg/mL
same,"Rel. potency to MSI-1436, Mitogen Proliferation Assay",[2],0.43
same,% Inhib. of MSI-1436 Binding @ 100 μg/mL,[3],51%
